According to US9370547B2, “Compositions and methods for treating ischemia” (UNIVERSITY OF KENTUCKY RESEARCH FOUNDATION, priority 2014, dated 2016):

Experiments:
[1] = test system: claudin-5 expression in mouse brain endothelial cells; assay: Claudin-5 western blot and immunocytochemistry in brain endothelial cells after OGD; format: cell-based
Protocol: FIG. 11A includes a claudin-5 western blot of brain endothelial cells after OGD that were treated as labeled.
FIG. 11B includes plot showing the quantification of claudin-5 expression normalized to Ponceau S total protein stain for the samples show in FIG. 11A.
FIG. 11C includes images showing claudin-5 immunocytochemistry of WT mouse brain endothelial cells either just prior to (control) or 24 hours after OGD treated as labeled. Scale bar is 5 μm.

[2] = cited from earlier work
[3] = test system: WT mice after MCAo; details: mouse, in vivo

Row | Substance | claudin-5 levels compared with ATN-161 and normoxic control [1] | serum half-life ([2]; for some subjects) [h] | tissue distribution ([2]; in vivo) | safety of intravenous administration ([2]; intravenous) | animal vital signs upon administration [3] | tolerability (signs of illness such as fur ruffling, weight differences) [3]
1 | Ac-PhScN—NH2 | more effective than ATN-161 | – | – | – | – | –
2 | Ac-PHSCN-NH2 [ATN-161] | – | 3 to 5 | high tissue distribution | can be safely administered intravenously | did not alter animal vital signs | well tolerated
